Experimental data from PubChem BioAssay AID463199 (Broad Institute, 2010).
Calls of active or inactive are those of the source.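 How the source made its calls: active means AC50, the dose giving half-maximal effect, exceeds a fixed cutoff for a compound that rescues yeast growth under heat; inactive means the rest, inconclusive results apart.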

Each molecule was assayed on S. cerevisiae Burl-1 ts mutant growth, BacTiter-Glo, 38.5C 24 h (assay: growth induction of Burl-1 ts yeast mutant, dose response, counter-screen for SUMOylation pathway inhibitor project, whole organism, S. cerevisiae, luminescence (AID 463199)).

Compound | AC50
CN(c1cccnc1)c1ncnc2[nH]ncc12 | > 42 µM (inactive)
Cc1cnc(NC(=O)CN2CCN(c3ccccc3F)CC2)s1 | > 42 µM (inactive)
O=C(CSc1ncccn1)c1ccccc1Br | > 42 µM (inactive)
O=C(NC1CCCCC1)c1n[nH]c2c1CCCCC2 | > 42 µM (inactive)
CC(N=C(NC#N)Nc1ccncc1)C(C)(C)C (configuration not stated) | > 42 µM (inactive)
Clc1ccc(CNCc2cccs2)cc1Cl | > 42 µM (inactive)
Cc1ccc(SCCC(=O)Nc2ccc(OCc3ccccc3)cc2)cc1 | > 42 µM (inactive)
CC12CCC(=O)N1C(C(=O)Nc1ccccc1F)CS2 (configuration not stated) | > 42 µM (inactive)
Nc1nc2ccccc2cc1-c1cccs1 | > 42 µM (inactive)
CC(C)N(C(=S)Nc1cccc(S(=O)(=O)N(C)C)c1)c1ccccc1 | > 42 µM (inactive)
CCNC(=O)/C(C#N)=C/c1c(N2CCCCCC2)nc2ccccn2c1=O | > 42 µM (inactive)
COc1ccccc1N(CC(=O)NCC1CCCO1)C(=O)CCC(=O)Nc1cc(C)on1 (configuration not stated) | > 42 µM (inactive)
COC(=O)[C@@]12CCCCN1[C@H](c1ccc(-c3ccc(C(C)=O)cc3)cc1)[C@@H]1C(=O)N(C)C(=O)[C@@H]12 | > 42 µM (inactive)
CCCCC1=CC2=CC(=O)C(C)(OC(=O)CC)C(=O)C2=CN1CCc1ccc(Br)cc1 (configuration not stated) | > 42 µM (inactive)
CCC(C)[C@H](N)c1nnc(SCC(=O)Nc2cccc(Cl)c2)o1 (some centres not stated) | > 42 µM (inactive)
CS(=O)(=O)c1ccc(Cl)c(NC(=O)c2ccc3ccccc3c2)c1 | > 42 µM (inactive)
Cc1ccc(S(=O)(=O)NC2CCCCCCC2)cc1 | > 42 µM (inactive)
COc1cccc(NC(=O)c2nn(C34CC5CC(CC(C5)C3)C4)cc2[N+](=O)[O-])c1 | > 42 µM (inactive)
CCCN(CCC)C(=O)CSc1ncccc1C(=O)O | > 42 µM (inactive)

Compound | AC50
O=C1NC(Cc2c[nH]c3ccccc23)C(=O)N1Cc1ccc(CN2C(=O)NC(Cc3c[nH]c4ccccc34)C2=O)cc1 (configuration not stated) | > 42 µM (inactive)
Cc1ccc(-c2cc(C(=O)O)c3ccccc3n2)s1 | > 42 µM (inactive)
O=C(CCCCCn1c(=O)[nH]c2ccsc2c1=O)NCc1ccc(F)cc1 | > 42 µM (inactive)
COc1ccc(NC(=O)CSc2nccc(C)n2)cc1 | > 42 µM (inactive)
COc1ccc(NC(=O)CN(C)C(=O)/C=C/c2cn(-c3ccccc3)nc2-c2ccc(F)cc2)cc1 | > 42 µM (inactive)
C[C@@]12C(=O)Nc3cc(Cl)ccc3C(=O)N1[C@H]1c3ccccc3OC[C@@H]1[C@@H]2c1ccccc1 | > 42 µM (inactive)
CCCCC(=O)Nc1nnc(/C=C/c2ccc(OC)cc2)s1 | > 42 µM (inactive)
COc1cc(C(c2c(C)[nH][nH]c2=O)c2c(C)[nH][nH]c2=O)cc(OC)c1OC | > 42 µM (inactive)
CS(=O)(=O)N1CCC(Oc2ccccc2C(=O)N2CCNC(=O)C2)CC1 | > 42 µM (inactive)
Cc1ccc(NS(=O)(=O)c2cc(C(=O)Nc3cccc([N+](=O)[O-])c3)ccc2C)cc1 | > 42 µM (inactive)
CCCC(O)(CCC)C(=O)NNc1ccc(C)cc1 | > 42 µM (inactive)
CC(=O)NC1CCCN(O)C(=O)/C=C(\C)CCOC(=O)C(NC(C)=O)CCCN(O)C(=O)/C=C(\C)CCOC(=O)C(NC(C)=O)CCCN(O)C(=O)/C=C(\C)CCOC1=O (configuration not stated) | > 42 µM (inactive)
C[C@@]12C(=O)Nc3ccc(Br)cc3C(=O)N1[C@H]1c3ccccc3OC[C@@H]1[C@@H]2c1ccccc1 | > 42 µM (inactive)
Cc1ccc(-n2nnnc2C(Cl)(Cl)c2nnnn2-c2ccc(C)cc2)cc1 | > 42 µM (inactive)
CCCN1C(=O)c2[nH]nc(-c3cc(Cl)c(C)cc3O)c2C1c1ccc(O)c(OC)c1 (configuration not stated) | > 42 µM (inactive)
N#Cc1cc2c(nc1SC1CCCCC1O)CCCC2 (configuration not stated) | > 42 µM (inactive)
CCN(C(=O)Cn1nc(C)c([N+](=O)[O-])c1C)c1c(N)n(Cc2ccccc2)c(=O)[nH]c1=O | > 42 µM (inactive)
CCOC(=O)C(C)(C)Sc1nc2c(cnn2-c2ccc(C)cc2)c(=O)[nH]1 | > 42 µM (inactive)
